According to ChEMBL document CHEMBL2028040, “Malaria Box”:

Columns and labels:
[1] = test system: Trypanosoma brucei rhodesiense; test: MMV: Inhibition of Trypanosoma brucei rhodesiense (STIB 900) (HAT in vitro).; format: functional, organism-based
Plasmodium falciparum [2] = test: MMV: Inhibition of Plasmodium falciparum 3D7 at 2uM compound concentration.; format: functional
Leishmania infantum = test: MMV: Inhibition of Leishmania infantum (MHOM/MA/BE/67) in vitro.; format: functional, organism-based
Plasmodium falciparum [3] = test: MMV: Inhibition of Plasmodium falciparum 3D7 (EC50).; format: functional, organism-based
Trypanosoma cruzi = test: MMV: Inhibition of Trypanosoma cruzi (Tulahuen C4 LacZ) (Chagas in vitro).; format: functional, organism-based
[4] = test system: Trypanosoma brucei brucei; test: MMV: Inhibition of Trypanosoma brucei brucei (Squib 427) (HAT in vitro).; format: functional, organism-based
[5] = MMV: Cytotoxicity against human fibroblasts (MRC-5) cells.; settings: MRC-5 cells (human fibroblasts)
Plasmodium falciparum [6] = test: MMV: Inhibition of Plasmodium falciparum K1 (EC50).; format: functional, organism-based
Plasmodium falciparum [7] = test: MMV: Inhibition of Plasmodium falciparum 3D7 at 5uM compound concentration.; format: functional

Row | IC50 [1] [µM] | IC50 (Leishmania infantum) [µM] | EC50 (Plasmodium falciparum [3]) [µM] | IC50 (Trypanosoma cruzi) [µM] | IC50 [4] [µM] | EC50 (Plasmodium falciparum [6]) [µM] | Compound | inhibition at 2 µM (Plasmodium falciparum [2]) [%] | IC50 [5] [µM] | inhibition at 5 µM (Plasmodium falciparum [7]) [%]
1 | > 32 | > 32 | 4 | > 32 | > 32 | – | CCc1ccc(Nc2cc(C)nc3nc(C)nn23)cc1 | 81 | > 32 | –
2 | > 32 | > 32 | – | > 32 | > 32 | – | CCOc1ccc(N2C(N)=NC(N)=NC2(C)C)cc1 | 92 | 21.1 | –
3 | 3.49 | 4 | 4 | 13.7 | 3.73 | – | CCOc1ccc2nc(C)cc(Nc3ccc(N(C)C)cc3)c2c1 | 94 | 18.6 | –
4 | 2.06 | 3.01 | 0.59 | 2.58 | 3.33 | – | OCCNc1nc(Nc2ccc(Cl)c(Cl)c2)nc2ccccc12 | 94 | 4.96 | –
5 | 3.05 | 0.707 | 0.776 | 1.46 | 3.36 | – | c1ccc(CNc2nc(Nc3ccccc3)nc3ccccc23)cc1 | 95 | 3.36 | –
6 | > 32 | > 32 | – | > 32 | > 32 | – | CN(C)c1ccc(N2C(N)=NC(N)=NC2(C)C)cc1 | 95 | > 32 | –
7 | > 32 | > 32 | 4 | > 32 | > 32 | – | COc1cc(SC)ccc1C(=O)N1CCCC(C)C1 (stereo not given) | 45 | > 32 | –
8 | 4.03 | 2.57 | – | 0.919 | 7.58 | – | Cc1cc(Nc2cccc(F)c2)nc(NCc2ccccc2)n1 | 97 | > 32 | –
9 | 27.7 | > 32 | 4 | 21.1 | > 32 | – | Cc1ccc2c(C)nc(Nc3nc(C)cc(-c4ccccc4)n3)nc2c1 | 73 | > 32 | –
10 | > 32 | > 32 | 4 | > 32 | > 32 | – | CN1CCN(c2c3c(c(C#N)c4nc5ccccc5n24)CCC3)CC1 | 42 | > 32 | –
11 | 12.1 | 12 | 4 | 15.8 | 9.07 | – | COc1cccc(Nc2nc(N)c3ccccc3n2)c1 | 94 | > 32 | –
12 | 16.1 | > 32 | – | 5.5 | > 32 | – | COc1ccc2sc(N(Cc3cccnc3)C(=O)c3ccc(C#N)cc3)nc2c1 | 89 | > 32 | –
13 | 11.4 | 4.32 | 0.4 | 11.4 | 17.6 | – | Cc1cccc(Nc2nc(N)c3ccccc3n2)c1 | 97 | > 32 | –
14 | 4.03 | 6.35 | 4 | 7.26 | 3.91 | – | CN(C)CCNc1cc(-c2ccccc2)nc2ccccc12 | 92 | 25.4 | –
15 | > 32 | > 32 | 4 | > 32 | > 32 | – | CCCCc1c(C)nc2c(OC)cccc2c1O | 92 | > 32 | –
16 | 13.9 | > 32 | 0.518 | 13.6 | 15.7 | 0.945 | CCOC(=O)C1=CN(C)C=C(C(=O)OCC)C1c1cc(Br)c(OCC)c(OC)c1 | – | > 32 | 97
17 | 1.01 | 10.2 | 1.26 | 10.6 | 1 | 0.456 | CC(C)c1ccc(CNCC(O)c2ccccc2)cc1 (stereo not given) | – | 13 | 96
18 | 7.36 | 16.2 | 1.51 | > 32 | 16.9 | 1.17 | CCOC(=O)C1=C(C)N=c2sc(=Cc3ccccc3O)c(=O)n2C1c1ccc(OC)c2ccccc12 (stereo not given) | – | > 32 | 97
19 | 0.419 | 17.3 | 0.545 | 16.9 | 11.5 | 1.51 | Cn1c(=O)n(C)c2cc(CNCCNc3ccnc4cc(Cl)ccc34)ccc21 | – | > 32 | 90
20 | 2.9 | > 32 | 0.814 | 5.48 | 15 | 0.705 | COc1ccccc1C(=O)ON=C(N)Cc1cccc2ccccc12 | – | 13.9 | 97

Row | IC50 [1] [µM] | IC50 (Leishmania infantum) [µM] | EC50 (Plasmodium falciparum [3]) [µM] | IC50 (Trypanosoma cruzi) [µM] | IC50 [4] [µM] | EC50 (Plasmodium falciparum [6]) [µM] | Compound | inhibition at 2 µM (Plasmodium falciparum [2]) [%] | IC50 [5] [µM] | inhibition at 5 µM (Plasmodium falciparum [7]) [%]
21 | 15.5 | 22.6 | 0.512 | 13 | > 32 | 0.413 | CCn1c(CN2CCN(Cc3ccccc3)CC2)nc2cc(NC(=O)c3cccs3)ccc21 | – | > 32 | 97
22 | 1.06 | > 32 | 0.18 | 1.12 | 4.06 | 0.4 | COc1ccc(Br)cc1C1Nc2ccc3ccccc3c2C2=C1C(=O)CC(c1ccccc1)C2 (stereo not given) | – | > 32 | 95
23 | 1.85 | 10.1 | 0.53 | 12.3 | 4.23 | 0.375 | COc1cccc(O)c1CN1CCC2(CCCN(Cc3ccc(F)cc3)C2)C1 (stereo not given) | – | > 32 | 95
24 | > 32 | 25.4 | 0.263 | > 32 | > 32 | 0.666 | Cc1cc(C=C2SC(=Nc3ccccc3)N(C3CCCC3)C2=O)c(C)n1-c1ccc(Cl)cc1 | – | > 32 | 97
25 | 14.4 | > 32 | 0.944 | > 32 | 16 | 1.29 | Clc1ccc2c(N3CCCC3)ccnc2c1 | – | > 32 | 97
26 | > 32 | > 32 | 0.536 | > 32 | > 32 | 0.502 | CC(=O)c1sc(NC(=O)Nc2ccc(C)cc2C)nc1C | – | > 32 | 64
27 | 0.217 | 3.01 | 0.0368 | 0.136 | 0.88 | 0.048 | c1ccc(Cn2c(N=Nc3c(Nc4ccccc4)ccc4ccccc34)nc3ccccc32)cc1 | – | 0.389 | 96
28 | 6.53 | 4 | 4 | 3.81 | 3.35 | – | Cc1ccc(Nc2nc(N)c3ccccc3n2)cc1Cl | 96 | 15.4 | –
29 | 3.92 | 16.2 | 0.0822 | 16.5 | 3.82 | 1 | CNCCCNc1ccnc2cc(Cl)ccc12 | – | > 32 | 98
30 | 3.35 | 4.06 | 0.48 | 4.22 | 3.6 | – | CCOc1ccc2nc(C)cc(Nc3ccc(Br)cc3)c2c1 | 96 | 3.17 | –
31 | < 0.125 | 3.01 | 1.01 | 1.08 | < 0.125 | 1 | CC1CC2=C(CC1CNCCCN(C)C)C(C)(C)CCC2 (stereo not given) | – | 4.15 | 98
32 | 1.72 | 1.59 | 0.327 | > 32 | 4.18 | 0.724 | COC(=O)c1ccc(C2C3=C(O)CC(c4ccc(F)cc4)CC3=Nc3ccccc3N2C(=O)c2ccccc2)cc1 (stereo not given) | – | > 32 | 98
33 | 3.51 | 4.06 | 2 | 3.66 | 3.57 | – | COc1ccc2nc(C)cc(Nc3ccc(Cl)cc3)c2c1 | 95 | > 32 | –
34 | > 32 | > 32 | 0.826 | > 32 | > 32 | 1.27 | O=C(Nc1ccc(C23CC4CC(CC(c5ccccc5)(C4)C2)C3)cc1)c1cccs1 | – | > 32 | 96
35 | 2.17 | 10.6 | 1.16 | 3.82 | 2.5 | 1.26 | O=C(Nc1ccc(Cl)c(Cl)c1)Nc1ccc(Cl)c(Cl)c1 | – | > 32 | 96
36 | 1 | 4.06 | 1.02 | 1.05 | 1.2 | 1.02 | Cc1ccnc(NC(c2cccc(OCc3ccccc3)c2)c2ccc3cccnc3c2O)c1 (stereo not given) | – | 2 | 97
37 | 11.9 | 4.32 | 0.194 | 3.72 | 12.2 | 0.0161 | CCc1ccc(Nc2cc(C)c3ccc(O)cc3n2)cc1 | – | 7.77 | 98
38 | > 32 | > 32 | 1.07 | > 32 | > 32 | 0.798 | O=C1c2ccccc2-c2nnc(-c3ccc(Br)cc3)cc21 | – | > 32 | 99
39 | 1 | 1.01 | 0.795 | 2.07 | 2.84 | 0.858 | O=C1c2ccc3c4c(ccc(c24)C(=O)N1CCCCO)C(=O)N(CCCCO)C3=O | – | 13.8 | 97
